From ChEMBL document CHEMBL1154376, “Anomalous microbial transformations on the taxane ring of 10-DAB by a strain of the fungus Curvularia lunata: transbenzoylation, transacetylation, and opening of the oxetane ring” (J Nat Prod, 2009)

test system: NCI-H460; test: Cytotoxicity against human H460 cells; format: functional, cell-based

Compared with `C=C1[C@H]2C[C@@]3(OC(=O)c4ccccc4)C(=O)[C@@H]4[C@]5(OC(C)=O)CO[C@@H]5C[C@H](O)[C@@]4(C)[C@H](O)[C@@](O)(O2)[C@@H]1C3(C)C`, `C=C1[C@H]2C[C@@]3(OC(=O)c4ccccc4)C(=O)[C@@H]4[C@](O)(COC(C)=O)[C@@H](O)C[C@H](O)[C@@]4(C)[C@H](O)[C@@](O)(O2)[C@@H]1C3(C)C` is 1.8-fold higher in IC50: 51.5 µM for the first, 95.2 µM for the second. The first is the more potent here.

Going from `CC(=O)O[C@@]12CO[C@@H]1C[C@@H](O)[C@@]1(C)C(=O)C(=O)C3=C(C)[C@@H](O)C[C@@](O)([C@@H](OC(=O)c4ccccc4)[C@H]21)C3(C)C` to `CC(=O)O[C@@]12CO[C@@H]1C[C@H](O)[C@@]1(C)C(=O)[C@H](O)C3=C(C)[C@@H](O)C[C@@](O)([C@@H](OC(=O)c4ccccc4)[C@H]21)C3(C)C`, the IC50 falls from 60 µM to 3.1 µM (19-fold). The second is the more potent here.
